This is an account of results in US20170232031A1, “Inhibitors of Zika Virus” (Riboscience LLC, priority 2016, published 2017).

Broadly, the IC50 is the concentration that inhibits the measured activity by half.

The structures appear in SMILES notation.

One experiment has as its system ZIK-V-RLuc. The experiment in a line: Renilla Luciferase (Rluc) assay, % infection of ZIK-V-RLuc. In kind it is cell-based. As to conditions: Zika virus, 72 h, read-out: IC50 Zika. The procedure:
FIG. 1. Graph of % infection of ZIK-V-RLuc at 72 h.p.i. vs. IC50 concentration (μM) of compound I-36.
FIG. 2. Graph of % infection of ZIK-V-RLuc at 72 h.p.i. vs. IC50 concentration (μM) of compound I-37.
Single Epimers I-36 and I-37, of I-1 were tested in the Rluc assay at 72 h.p.i. for % inhibition vs. concentration of compound (FIGS. 1-2): […]

Experiment [1] addresses T1, mitochondrial DNA polymerase pol γ (Homo sapiens, UniProt P54098).
T1 sequence (P54098 1-1239): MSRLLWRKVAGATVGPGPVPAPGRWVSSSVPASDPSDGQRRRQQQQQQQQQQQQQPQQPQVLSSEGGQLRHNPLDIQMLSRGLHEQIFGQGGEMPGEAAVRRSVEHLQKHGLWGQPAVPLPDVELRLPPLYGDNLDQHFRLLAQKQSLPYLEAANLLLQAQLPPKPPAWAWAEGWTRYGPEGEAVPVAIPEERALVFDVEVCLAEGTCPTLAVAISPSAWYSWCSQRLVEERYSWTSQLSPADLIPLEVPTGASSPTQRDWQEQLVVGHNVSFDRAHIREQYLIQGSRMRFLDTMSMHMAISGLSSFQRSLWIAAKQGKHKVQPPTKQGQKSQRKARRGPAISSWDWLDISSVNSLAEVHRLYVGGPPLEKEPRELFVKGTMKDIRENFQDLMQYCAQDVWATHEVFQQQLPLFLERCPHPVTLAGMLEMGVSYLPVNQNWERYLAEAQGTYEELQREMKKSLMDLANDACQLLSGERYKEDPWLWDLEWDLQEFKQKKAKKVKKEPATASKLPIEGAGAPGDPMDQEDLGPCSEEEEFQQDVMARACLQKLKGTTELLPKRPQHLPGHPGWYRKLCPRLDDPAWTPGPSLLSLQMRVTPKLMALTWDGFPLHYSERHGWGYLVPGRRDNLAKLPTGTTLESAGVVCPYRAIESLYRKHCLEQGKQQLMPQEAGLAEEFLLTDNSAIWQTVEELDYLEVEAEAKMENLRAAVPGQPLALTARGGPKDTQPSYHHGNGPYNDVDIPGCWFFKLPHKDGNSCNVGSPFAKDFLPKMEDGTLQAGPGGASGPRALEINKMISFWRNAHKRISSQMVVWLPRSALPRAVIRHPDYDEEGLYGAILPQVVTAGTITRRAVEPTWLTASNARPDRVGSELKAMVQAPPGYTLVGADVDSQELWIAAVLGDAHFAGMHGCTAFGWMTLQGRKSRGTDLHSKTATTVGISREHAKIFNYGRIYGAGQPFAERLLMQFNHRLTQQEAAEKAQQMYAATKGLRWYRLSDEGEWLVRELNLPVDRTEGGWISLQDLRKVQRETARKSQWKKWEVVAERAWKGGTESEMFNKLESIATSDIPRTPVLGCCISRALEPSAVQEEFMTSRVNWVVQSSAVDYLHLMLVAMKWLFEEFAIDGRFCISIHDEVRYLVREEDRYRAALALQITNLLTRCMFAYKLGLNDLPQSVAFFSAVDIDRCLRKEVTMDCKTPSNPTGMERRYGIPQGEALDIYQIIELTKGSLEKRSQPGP
The experiment in a line: Inhibition of mitochondrial DNA polymerase pol γ. Conditions: comparison nucleoside triphosphates; read-out: DNA pol γ mean IC50. In kind it is biochemical.

In the case of `C[C@H](N[P@](=O)(OC[C@@]1(N=[N+]=[N-])O[C@@H](n2ccc(=O)[nH]c2=O)[C@H](O)[C@@H]1O)Oc1cccc2ccccc12)C(=O)OCc1ccccc1` [Compound I-37, benzyl ((S)-(((2R,3S,4R,5R)-2-azido-5-(2,4-dioxo-3,4-dihydropyrimidin-1(2H)-yl)-3,4-dihydroxytetrahydrofuran-2-yl)methoxy)(naphthalen-1-yloxy)phosphoryl)-L-alaninate], in the experiment with ZIK-V-RLuc, the IC50 came out at 1.65 µM. Take `Nc1ccn([C@@H]2CS[C@H](COP(=O)(O)OP(=O)(O)OP(=O)(O)O)O2)c(=O)n1` [lamivudine triphosphate]: the IC50 in experiment [1] amounted to 149 µM. For `C[C@H](N[P@@](=O)(OC[C@@]1(N=[N+]=[N-])O[C@@H](n2ccc(=O)[nH]c2=O)[C@H](O)[C@@H]1O)Oc1cccc2ccccc12)C(=O)OCc1ccccc1` [Compound I-36, benzyl ((R)-(((2R,3S,4R,5R)-2-azido-5-(2,4-dioxo-3,4-dihydropyrimidin-1(2H)-yl)-3,4-dihydroxytetrahydrofuran-2-yl)methoxy)(naphthalen-1-yloxy)phosphoryl)-L-alaninate], the IC50 with ZIK-V-RLuc came to 1.1 µM. On to `Cc1cn([C@H]2C[C@H](N=[N+]=[N-])[C@@H](COP(=O)(O)OP(=O)(O)OP(=O)(O)O)O2)c(=O)[nH]c1=O` [AZT triphosphate], for which the IC50 in experiment [1] turned out to be 2.47 µM.
